This note sets out measurements from US8349844B2, “Substituted pyrazolo [1,5-A] pyrimidines as metabotropic glutamate antagonists” (Hoffmann-La Roche Inc., priority 2005, dated 2013).

One data set concerns the target T1, rat mGlu2 receptor (Rattus norvegicus, UniProt P31421).
T1 construct: expressed in transfected cells; membranes prepared from them
The data set can be described thus: [3H]-LY354740 binding on mGlu2 transfected CHO cell membranes. The following applies: [3H]-LY354740 (10 nM) displacement. The source says:
[^3H]-LY354740 Binding on mGlu2 Transfected CHO Cell Membranes. Transfection and Cell Culture
cDNA encoding the rat mGlu2 receptor protein in pBluescript II was subcloned into the eukaryotic expression vector pcDNA I-amp from Invitrogen Ltd (Paisley, UK). This vector construct (pcD1mGR2) was co-transfected with a psvNeo plasmid encoding the gene for neomycin resistance, into CHO cells by a modified calcium phosphate method described by Chen & Okayama (1988). The cells were maintained in Dulbecco's Modified Eagle medium with reduced L-glutamine (2 mM final concentration) and 10% dialysed foetal calf serum from Gibco-Invitrogen (Carlsbad, Calif., USA). Selection was made in the presence of G-418 (1000 ug/ml final) and […]. Clones were identified by reverse transcription of 5 μg total RNA, followed by PCR using mGlu2 receptor specific primers 5′-[…]-3′ and 5′-[…]-3′ in 60 mM Tris HCl (pH 10), 15 mM (NH4)2SO4, 2 mM MgCl2, 25 units/ml Taq Polymerase with 30 cycles annealing at 60° C. for 1 min., extention at 72° C. for 30 s, and 1 min. 95° C. denaturation.
Cells, cultured as above, were harvested and washed three times with cold PBS and frozen at −80° C. The pellet was resuspended in cold 20 mM HEPES-NaOH buffer containing 10 mM EDTA (pH 7.4), and homogenised with a polytron (Kinematica, A G, Littau, Switzerland) for 10 s at 10 000 rpm. After centrifugation for 30 min. at 4° C., the pellet was washed once with the same buffer, and once with cold 20 mM HEPES-NaOH buffer containing 0.1 mM EDTA, (pH 7.4). Protein content was measured using the micro BCA method from Pierce-Perbio (Rockford, Ill., USA) using bovine serum albumin as standard.
After thawing, the membranes were resuspended in cold 50 mM Tris-HCl buffer containing 2 mM MgCl2 (pH 7) (binding buffer). The final concentration of the membranes in the assays was 25 μg protein/ml. Inhibition experiments were performed with membranes incubated with 10 nM [^3H]-LY354740 at room temperature, for 1 hour, in presence of various concentrations of the compound to be tested. Following the incubations, membranes were filtered onto Whatmann GF/B glass fiber filters and washed 5 times with cold binding buffer. Non specific binding was measured in the presence of 10 μM DCG IV. After transfer of the filters into plastic vials containing 10 ml of Ultima-gold scintillation fluid from Perkin-Elmer (Boston, Mass., USA), the radioactivity was measured by liquid scintillation in a Tri-Garb 2500 TR counter (Packard, Zürich, Switzerland).
The inhibition curves were fitted with a four parameter logistic equation giving IC50 values, and Hill coefficients.

T1 sequence (P31421 19-872): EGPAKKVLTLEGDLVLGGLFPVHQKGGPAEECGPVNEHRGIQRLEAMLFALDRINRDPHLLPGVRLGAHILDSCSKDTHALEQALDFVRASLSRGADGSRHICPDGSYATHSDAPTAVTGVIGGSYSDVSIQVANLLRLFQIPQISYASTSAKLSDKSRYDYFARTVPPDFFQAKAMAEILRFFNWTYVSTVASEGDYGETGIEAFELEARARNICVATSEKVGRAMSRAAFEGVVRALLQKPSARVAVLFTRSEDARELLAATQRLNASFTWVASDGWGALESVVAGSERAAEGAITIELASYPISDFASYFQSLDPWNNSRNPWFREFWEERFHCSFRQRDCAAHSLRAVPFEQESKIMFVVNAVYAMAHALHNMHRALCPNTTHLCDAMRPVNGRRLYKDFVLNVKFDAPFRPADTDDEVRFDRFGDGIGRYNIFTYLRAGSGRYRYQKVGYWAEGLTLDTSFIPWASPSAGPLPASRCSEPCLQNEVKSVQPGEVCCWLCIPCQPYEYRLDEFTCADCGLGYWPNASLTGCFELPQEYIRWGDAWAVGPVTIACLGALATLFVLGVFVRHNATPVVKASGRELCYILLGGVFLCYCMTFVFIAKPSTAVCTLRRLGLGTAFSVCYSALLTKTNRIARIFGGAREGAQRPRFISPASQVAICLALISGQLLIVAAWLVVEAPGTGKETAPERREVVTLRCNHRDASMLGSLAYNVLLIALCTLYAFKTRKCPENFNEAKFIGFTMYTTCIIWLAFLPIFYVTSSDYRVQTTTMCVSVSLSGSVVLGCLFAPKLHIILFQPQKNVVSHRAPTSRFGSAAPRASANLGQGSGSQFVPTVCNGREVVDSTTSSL

As for `Nc1ccc(-c2noc(-c3cnn4c(C(F)(F)F)cc(-c5cccc(C(F)(F)F)c5)nc34)n2)cn1` [Example 34, 5-{5-[7-Trifluoromethyl-5-(3-trifluoromethyl-phenyl)-pyrazolo[1,5-a]pyrimidin-3-yl]-[1,2,4]oxadiazol-3-yl}-pyridin-2-ylamine], the melting point turned out to be 264 °C. This molecule also had an inhibition constant (Ki) on rat mGlu2 receptor of 0.051 µM.

Molecule `Cc1cc(-c2ccc(Cl)cc2)cn2c(-c3nc(-c4ccc(S(N)(=O)=O)s4)no3)cnc12` [Example 41, 5-{5-[6-(4-Chloro-phenyl)-8-methyl-imidazo[1,2-a]pyridin-3-yl]-[1,2,4]oxadiazol-3-yl}-thiophene-2-sulfonic acid amide] yielded a melting point of 271 °C. Moreover, the affinity at rat mGlu2 receptor corresponds to a Ki of 0.0213 µM.

Molecule `NS(=O)(=O)c1ccc(-c2noc(-c3ncn4c(C(F)(F)F)cc(-c5ccc(C(F)(F)F)cc5)nc34)n2)s1` [Example 42, 5-{5-[4-Trifluoromethyl-2-(4-trifluoromethyl-phenyl)-imidazo[1,5-a]pyrimidin-8-yl]-[1,2,4]oxadiazol-3-yl}-thiophene-2-sulfonic acid amide] yielded a melting point of 295 °C. At rat mGlu2 receptor, this molecule gave a Ki of 0.0146 µM.

The molecule `Nc1ncc(-c2noc(-c3cnn4c(C(F)(F)F)cc(-c5ccc(C(F)(F)F)cc5)nc34)n2)cn1` [Example 46, 5-{5-[7-Trifluoromethyl-5-(4-trifluoromethyl-phenyl)-pyrazolo[1,5-a]pyrimidin-3-yl]-[1,2,4]oxadiazol-3-yl}-pyrimidin-2-ylamine] had a melting point of 254 °C. At rat mGlu2 receptor, this molecule gave a Ki of 0.0145 µM.

As for `Cc1cc(-c2ccc(C(F)(F)F)cc2)cn2c(-c3nc(-c4ccc(N)nc4)no3)cnc12` [Example 47, 5-{5-[8-Methyl-6-(4-trifluoromethyl-phenyl)-imidazo[1,2-a]pyridin-3-yl]-[1,2,4]oxadiazol-3-yl}-pyridin-2-ylamine], the melting point amounted to 257 °C. Further, at rat mGlu2 receptor, affinity was put at a Ki of 0.0077 µM.

In the case of `Cc1cc(-c2ccc(C(F)(F)F)cc2)cn2c(-c3nc(-c4cnc(N)nc4)no3)cnc12` [Example 48, 5-{5-[8-Methyl-6-(4-trifluoromethyl-phenyl)-imidazo[1,2-a]pyridin-3-yl]-[1,2,4]oxadiazol-3-yl}-pyrimidin-2-ylamine], the melting point came out at 302 °C. At rat mGlu2 receptor, this molecule gave a Ki of 0.0065 µM.

Turning to `Cc1cc(-c2cc(C(F)F)n3ncc(-c4nc(-c5ccc(N)nc5)no4)c3n2)ccc1Cl` [Example 77, 5-{5-[5-(4-Chloro-3-methyl-phenyl)-7-difluoromethyl-pyrazolo[1,5-a]pyrimidin-3-yl]-[1,2,4]oxadiazol-3-yl}-pyridin-2-ylamine], the melting point stood at 243 °C. In addition, the Ki on rat mGlu2 receptor stood at 0.0255 µM.

A word on the melting point: it is the temperature of the solid-liquid transition. For orientation: Ki means a measure of affinity in units of concentration, obtained from inhibition or displacement. Low values mean tighter binding, high ones weaker binding.
